Legend:
WNK4 = WNK4 (Homo sapiens, UniProt Q96J92); assay: Kinase profiling; type: binding; details: read-out: % Ctrl @ 1000 nM
CIT = CIT (Homo sapiens, UniProt O14578); assay: Kinase profiling; type: binding; details: read-out: % Ctrl @ 1000 nM
[1] = tested on: F4-80 (surface marker of macrophages); assay: F4-80 IHC test in MC-38 tumor; parameters: species or system mouse; details: end of in vivo efficacy trial; vs vehicle group
Description: MC38 tumor tissues were collected at the end of the in vivo efficacy trial. The tumor tissue was then embedded in paraffin. The expression of CD3/CD4/CD8/F4-80 were tested by immunohistochemistry stain.

FLT3-autoinhibited = FLT3-autoinhibited (Homo sapiens, UniProt P36888); assay: Kinase profiling; type: binding; details: read-out: % Ctrl @ 1000 nM
PRKCH = PRKCH (Homo sapiens, UniProt P24723); assay: Kinase profiling; type: binding; details: read-out: % Ctrl @ 1000 nM
[2] = target: ABL1 (T315I)-nonphosphorylated (Homo sapiens, UniProt P00519, T315I); assay: Kinase profiling; type: binding; details: read-out: % Ctrl @ 1000 nM
MKK7 = target: T1, MKK7 (Homo sapiens, UniProt O14733); assay: Kinase profiling; type: binding; details: read-out: % Ctrl @ 1000 nM
T1 construct: T7 phage fusion (stated for most kinases of the panel only); made in house; host or cells: T7 phage in E. coli (BL21-derived) or HEK-293 cells

FAK = FAK (Homo sapiens, UniProt Q05397); assay: Kinase profiling; type: binding; details: read-out: % Ctrl @ 1000 nM
FGFR3 = FGFR3 (Homo sapiens, UniProt P22607); assay: Kinase profiling; type: binding; details: read-out: % Ctrl @ 1000 nM
HIPK3 = HIPK3 (Homo sapiens, UniProt Q9H422); assay: Kinase profiling; type: binding; details: read-out: % Ctrl @ 1000 nM
MAP3K4 = MAP3K4 (Homo sapiens, UniProt Q9Y6R4); assay: Kinase profiling; type: binding; details: read-out: % Ctrl @ 1000 nM
PIK3C2G = PIK3C2G (Homo sapiens, UniProt O75747); assay: Kinase profiling; type: binding; details: read-out: % Ctrl @ 1000 nM
AKT2 = AKT2 (Homo sapiens, UniProt P31751); assay: Kinase profiling; type: binding; details: read-out: % Ctrl @ 1000 nM
VEGFR2 = VEGFR2 (Homo sapiens, UniProt P35968); assay: Kinase profiling; type: binding; details: read-out: % Ctrl @ 1000 nM
RIPK4 = RIPK4 (Homo sapiens, UniProt P57078); assay: Kinase profiling; type: binding; details: read-out: % Ctrl @ 1000 nM
CAMKK2 = CAMKK2 (Homo sapiens, UniProt Q96RR4); assay: Kinase profiling; type: binding; details: read-out: % Ctrl @ 1000 nM
LRRK2 (G2019S) = LRRK2 (G2019S) (Homo sapiens, UniProt Q5S007, G2019S); assay: Kinase profiling; type: binding; details: read-out: % Ctrl @ 1000 nM
MET = target: T2, MET (Homo sapiens, UniProt P08581); assay: Kinase profiling; type: binding; details: read-out: % Ctrl @ 1000 nM
T2 construct: T7 phage fusion (stated for most kinases of the panel only); made in house; host or cells: T7 phage in E. coli (BL21-derived) or HEK-293 cells

LKB1 = LKB1 (Homo sapiens, UniProt Q15831); assay: Kinase profiling; type: binding; details: read-out: % Ctrl @ 1000 nM
PAK2 = PAK2 (Homo sapiens, UniProt Q13177); assay: Kinase profiling; type: binding; details: read-out: % Ctrl @ 1000 nM
[3] = target: ABL1 (Y253F)-phosphorylated (Homo sapiens, UniProt P00519, Y253F); assay: Kinase profiling; type: binding; details: read-out: % Ctrl @ 1000 nM
MAPKAPK2 = MAPKAPK2 (Homo sapiens, UniProt P49137); assay: Kinase profiling; type: binding; details: read-out: % Ctrl @ 1000 nM
PKAC-beta = PKAC-beta (Homo sapiens, UniProt P22694); assay: Kinase profiling; type: binding; details: read-out: % Ctrl @ 1000 nM
S6K1 = S6K1 (Homo sapiens, UniProt P23443); assay: Kinase profiling; type: binding; details: read-out: % Ctrl @ 1000 nM
[4] = target: TYK2 (JH2domain-pseudokinase) (Homo sapiens, UniProt P29597); assay: Kinase profiling; type: binding; details: read-out: % Ctrl @ 1000 nM
NEK1 = target: T3, NEK1 (Homo sapiens, UniProt Q96PY6); assay: Kinase profiling; type: binding; details: read-out: % Ctrl @ 1000 nM
T3 construct: T7 phage fusion (said for most assays); made in house

PIK4CB = PIK4CB (Homo sapiens, UniProt Q9UBF8); assay: Kinase profiling; type: binding; details: read-out: % Ctrl @ 1000 nM
[5] = target: ABL1 (T315I)-phosphorylated (Homo sapiens, UniProt P00519, T315I); assay: Kinase profiling; type: binding; details: read-out: % Ctrl @ 1000 nM
DMPK2 = DMPK2 (Homo sapiens, UniProt Q6DT37); assay: Kinase profiling; type: binding; details: read-out: % Ctrl @ 1000 nM
DRAK2 = DRAK2 (Homo sapiens, UniProt O94768); assay: Kinase profiling; type: binding; details: read-out: % Ctrl @ 1000 nM
CAMK2A = CAMK2A (Homo sapiens, UniProt Q9UQM7); assay: Kinase profiling; type: binding; details: read-out: % Ctrl @ 1000 nM
ERK4 = ERK4 (Homo sapiens, UniProt P31152); assay: Kinase profiling; type: binding; details: read-out: % Ctrl @ 1000 nM
BUB1 = BUB1 (Homo sapiens, UniProt O43683); assay: Kinase profiling; type: binding; details: read-out: % Ctrl @ 1000 nM
FLT3 (D835V) = FLT3 (D835V) (Homo sapiens, UniProt P36888, D835V); assay: Kinase profiling; type: binding; details: read-out: % Ctrl @ 1000 nM
MARK3 = MARK3 (Homo sapiens, UniProt P27448); assay: Kinase profiling; type: binding; details: read-out: % Ctrl @ 1000 nM
ITK = ITK (Homo sapiens, UniProt Q08881); assay: Kinase profiling; type: binding; details: read-out: % Ctrl @ 1000 nM
ICK = ICK (Homo sapiens, UniProt Q9UPZ9); assay: Kinase profiling; type: binding; details: read-out: % Ctrl @ 1000 nM
SRC = SRC (Homo sapiens, UniProt P12931); assay: Kinase profiling; type: binding; details: read-out: % Ctrl @ 1000 nM

Sequence of ITK (Q08881 whole entry): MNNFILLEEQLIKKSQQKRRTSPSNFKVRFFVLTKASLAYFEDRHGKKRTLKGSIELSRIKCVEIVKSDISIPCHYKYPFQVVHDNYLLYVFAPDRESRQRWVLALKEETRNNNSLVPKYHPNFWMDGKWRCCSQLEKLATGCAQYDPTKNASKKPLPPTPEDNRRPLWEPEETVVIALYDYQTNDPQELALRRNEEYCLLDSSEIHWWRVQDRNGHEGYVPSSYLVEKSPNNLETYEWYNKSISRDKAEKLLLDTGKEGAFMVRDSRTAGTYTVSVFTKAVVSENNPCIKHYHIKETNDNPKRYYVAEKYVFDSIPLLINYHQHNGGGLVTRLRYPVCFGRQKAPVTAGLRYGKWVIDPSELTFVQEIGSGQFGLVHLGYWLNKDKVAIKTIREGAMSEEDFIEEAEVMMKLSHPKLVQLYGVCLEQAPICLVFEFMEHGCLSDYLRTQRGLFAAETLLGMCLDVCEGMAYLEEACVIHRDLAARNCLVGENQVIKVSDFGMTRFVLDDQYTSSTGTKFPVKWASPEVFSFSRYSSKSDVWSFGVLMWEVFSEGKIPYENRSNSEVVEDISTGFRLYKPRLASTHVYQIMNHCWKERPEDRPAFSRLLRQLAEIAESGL
Sequence of FGFR3 (P22607 23-806): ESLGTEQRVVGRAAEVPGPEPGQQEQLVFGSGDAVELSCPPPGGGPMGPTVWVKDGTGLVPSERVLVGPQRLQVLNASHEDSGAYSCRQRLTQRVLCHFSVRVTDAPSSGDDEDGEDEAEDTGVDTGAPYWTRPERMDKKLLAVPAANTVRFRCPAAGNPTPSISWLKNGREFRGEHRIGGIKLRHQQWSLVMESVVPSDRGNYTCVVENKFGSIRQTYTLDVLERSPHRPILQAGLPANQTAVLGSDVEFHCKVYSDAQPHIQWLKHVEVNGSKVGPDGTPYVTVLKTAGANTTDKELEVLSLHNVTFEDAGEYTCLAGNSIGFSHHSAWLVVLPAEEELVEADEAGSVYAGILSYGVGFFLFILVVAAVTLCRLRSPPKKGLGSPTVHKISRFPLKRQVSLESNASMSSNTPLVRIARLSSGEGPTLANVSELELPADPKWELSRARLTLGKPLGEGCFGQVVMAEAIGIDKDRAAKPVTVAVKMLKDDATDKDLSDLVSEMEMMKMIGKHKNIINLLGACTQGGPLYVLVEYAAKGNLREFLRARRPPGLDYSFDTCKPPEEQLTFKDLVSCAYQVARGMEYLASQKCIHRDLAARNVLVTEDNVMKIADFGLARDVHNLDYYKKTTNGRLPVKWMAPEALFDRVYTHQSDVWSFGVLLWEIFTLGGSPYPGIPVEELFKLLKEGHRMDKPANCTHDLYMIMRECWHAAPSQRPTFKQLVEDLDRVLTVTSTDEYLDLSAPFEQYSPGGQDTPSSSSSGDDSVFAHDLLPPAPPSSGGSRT
Sequence of PAK2 (Q13177 whole entry): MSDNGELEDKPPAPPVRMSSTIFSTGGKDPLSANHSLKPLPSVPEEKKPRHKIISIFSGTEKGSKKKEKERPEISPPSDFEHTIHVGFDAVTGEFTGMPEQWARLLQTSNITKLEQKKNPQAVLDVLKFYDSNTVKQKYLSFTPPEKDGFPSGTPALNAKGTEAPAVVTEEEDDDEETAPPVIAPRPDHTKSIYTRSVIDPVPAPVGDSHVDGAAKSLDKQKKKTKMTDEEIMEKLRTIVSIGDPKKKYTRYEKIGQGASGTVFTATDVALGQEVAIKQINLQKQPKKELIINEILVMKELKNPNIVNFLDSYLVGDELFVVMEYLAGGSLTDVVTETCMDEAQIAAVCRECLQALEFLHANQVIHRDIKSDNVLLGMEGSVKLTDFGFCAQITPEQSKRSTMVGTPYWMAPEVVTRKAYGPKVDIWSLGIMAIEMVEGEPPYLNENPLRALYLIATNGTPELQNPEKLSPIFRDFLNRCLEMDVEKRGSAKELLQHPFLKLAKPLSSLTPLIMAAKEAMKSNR
Sequence of TYK2 (JH2domain-pseudokinase) (P29597 589-875 limits assumed): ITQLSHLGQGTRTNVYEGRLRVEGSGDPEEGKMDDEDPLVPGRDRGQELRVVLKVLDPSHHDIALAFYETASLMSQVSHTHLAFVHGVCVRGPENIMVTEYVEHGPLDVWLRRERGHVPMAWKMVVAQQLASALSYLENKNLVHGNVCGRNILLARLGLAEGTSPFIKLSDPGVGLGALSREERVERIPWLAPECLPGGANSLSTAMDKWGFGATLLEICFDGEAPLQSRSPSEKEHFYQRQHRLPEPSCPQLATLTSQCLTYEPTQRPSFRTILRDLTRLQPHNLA
T2 sequence (P08581 25-1390): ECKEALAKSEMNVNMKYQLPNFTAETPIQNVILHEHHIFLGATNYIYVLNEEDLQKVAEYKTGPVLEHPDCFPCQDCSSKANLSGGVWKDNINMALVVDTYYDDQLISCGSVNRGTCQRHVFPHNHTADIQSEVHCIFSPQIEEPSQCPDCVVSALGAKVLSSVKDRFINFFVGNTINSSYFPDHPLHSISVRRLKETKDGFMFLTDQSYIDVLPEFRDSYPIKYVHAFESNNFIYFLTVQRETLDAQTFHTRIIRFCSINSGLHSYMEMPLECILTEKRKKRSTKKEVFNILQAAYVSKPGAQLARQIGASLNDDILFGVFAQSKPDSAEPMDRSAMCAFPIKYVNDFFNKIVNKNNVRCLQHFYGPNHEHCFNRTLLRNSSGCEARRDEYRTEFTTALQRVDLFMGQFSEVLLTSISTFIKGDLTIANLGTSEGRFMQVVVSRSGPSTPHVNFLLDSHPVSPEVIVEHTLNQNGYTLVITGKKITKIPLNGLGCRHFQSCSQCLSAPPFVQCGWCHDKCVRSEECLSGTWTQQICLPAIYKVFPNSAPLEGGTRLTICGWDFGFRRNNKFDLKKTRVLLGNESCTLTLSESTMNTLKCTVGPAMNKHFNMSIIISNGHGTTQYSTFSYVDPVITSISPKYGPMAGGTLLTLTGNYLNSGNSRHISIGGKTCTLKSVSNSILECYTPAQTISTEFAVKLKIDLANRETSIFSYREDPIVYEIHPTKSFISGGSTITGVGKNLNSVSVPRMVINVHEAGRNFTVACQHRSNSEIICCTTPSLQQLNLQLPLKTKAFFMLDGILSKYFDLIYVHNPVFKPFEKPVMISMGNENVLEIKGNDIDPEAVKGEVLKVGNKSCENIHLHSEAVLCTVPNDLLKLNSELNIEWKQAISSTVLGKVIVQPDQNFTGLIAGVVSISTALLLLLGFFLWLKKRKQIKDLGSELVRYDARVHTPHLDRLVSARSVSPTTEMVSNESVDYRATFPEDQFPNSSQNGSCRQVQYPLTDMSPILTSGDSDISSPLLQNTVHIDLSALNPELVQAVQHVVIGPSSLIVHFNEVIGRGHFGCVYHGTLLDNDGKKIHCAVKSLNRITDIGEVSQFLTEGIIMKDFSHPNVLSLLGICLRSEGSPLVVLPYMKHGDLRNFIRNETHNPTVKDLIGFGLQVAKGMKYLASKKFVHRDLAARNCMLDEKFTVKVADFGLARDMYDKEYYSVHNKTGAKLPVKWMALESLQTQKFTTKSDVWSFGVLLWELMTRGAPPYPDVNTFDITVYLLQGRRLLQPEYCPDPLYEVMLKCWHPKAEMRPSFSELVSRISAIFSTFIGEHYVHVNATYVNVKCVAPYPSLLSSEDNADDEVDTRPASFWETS
Sequence of BUB1 (O43683 whole entry): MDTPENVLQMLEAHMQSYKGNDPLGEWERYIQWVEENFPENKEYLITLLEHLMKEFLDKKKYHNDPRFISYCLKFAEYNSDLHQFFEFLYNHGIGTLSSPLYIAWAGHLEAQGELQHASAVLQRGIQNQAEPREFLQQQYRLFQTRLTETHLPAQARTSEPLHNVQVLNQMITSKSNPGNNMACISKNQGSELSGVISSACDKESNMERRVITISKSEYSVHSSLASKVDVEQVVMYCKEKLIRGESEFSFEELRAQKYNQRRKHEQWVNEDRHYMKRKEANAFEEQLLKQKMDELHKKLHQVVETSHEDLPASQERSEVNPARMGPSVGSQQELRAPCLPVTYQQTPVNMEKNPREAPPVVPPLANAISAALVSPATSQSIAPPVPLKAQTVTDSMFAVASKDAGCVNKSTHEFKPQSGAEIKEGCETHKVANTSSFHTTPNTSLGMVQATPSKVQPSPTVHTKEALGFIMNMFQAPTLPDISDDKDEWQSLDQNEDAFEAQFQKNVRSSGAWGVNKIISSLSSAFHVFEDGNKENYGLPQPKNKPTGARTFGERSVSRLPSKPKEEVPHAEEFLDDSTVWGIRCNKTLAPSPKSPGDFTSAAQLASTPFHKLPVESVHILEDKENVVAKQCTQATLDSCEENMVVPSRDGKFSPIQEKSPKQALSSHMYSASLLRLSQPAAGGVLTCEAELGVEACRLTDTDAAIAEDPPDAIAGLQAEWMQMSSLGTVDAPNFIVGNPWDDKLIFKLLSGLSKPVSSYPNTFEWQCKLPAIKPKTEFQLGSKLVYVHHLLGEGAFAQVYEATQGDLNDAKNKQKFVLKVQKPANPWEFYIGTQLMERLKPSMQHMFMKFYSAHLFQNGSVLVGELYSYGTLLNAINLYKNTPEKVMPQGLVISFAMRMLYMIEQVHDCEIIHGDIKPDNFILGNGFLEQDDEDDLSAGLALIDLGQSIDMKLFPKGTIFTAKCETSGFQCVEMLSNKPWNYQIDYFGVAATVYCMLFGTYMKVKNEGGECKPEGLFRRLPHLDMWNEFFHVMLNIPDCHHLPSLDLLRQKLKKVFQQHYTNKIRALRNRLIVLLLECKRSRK
Sequence of MAPKAPK2 (P49137 whole entry): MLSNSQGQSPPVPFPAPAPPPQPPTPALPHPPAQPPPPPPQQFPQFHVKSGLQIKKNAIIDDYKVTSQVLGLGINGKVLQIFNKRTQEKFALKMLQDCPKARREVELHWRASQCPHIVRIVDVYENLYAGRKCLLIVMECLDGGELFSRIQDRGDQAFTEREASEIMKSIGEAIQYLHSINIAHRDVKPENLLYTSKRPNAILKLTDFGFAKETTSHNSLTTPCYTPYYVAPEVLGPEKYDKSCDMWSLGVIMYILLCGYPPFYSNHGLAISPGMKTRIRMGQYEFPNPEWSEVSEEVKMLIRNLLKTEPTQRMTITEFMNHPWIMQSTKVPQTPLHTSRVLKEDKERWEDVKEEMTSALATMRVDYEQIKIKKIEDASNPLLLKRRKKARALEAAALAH

Structure (SMILES): Cc1cc(Oc2cc(NC(=O)C3CC3)ncn2)ccc1NC(=O)Nc1ccc(Cl)c(C(F)(F)F)c1 [CBT-102]
- remaining activity at 1 µM (WNK4): 89%
- remaining activity at 1 µM (CIT): 87%
- F4-80 IHC score (%) in MC-38 tumor tissue [1]: significantly reduced
- remaining activity at 1 µM (FLT3-autoinhibited): 90%
- remaining activity at 1 µM (PRKCH): 100%
- remaining activity at 1 µM [2]: 2.3%
- remaining activity at 1 µM (MKK7): 66%
- remaining activity at 1 µM (FAK): 86%
- remaining activity at 1 µM (FGFR3): 87%
- remaining activity at 1 µM (HIPK3): 78%
- remaining activity at 1 µM (MAP3K4): 100%
- remaining activity at 1 µM (PIK3C2G): 100%
- remaining activity at 1 µM (AKT2): 100%
- remaining activity at 1 µM (VEGFR2): 1.4%
- remaining activity at 1 µM (RIPK4): 100%
- remaining activity at 1 µM (CAMKK2): 92%
- remaining activity at 1 µM (LRRK2 (G2019S)): 38%
- remaining activity at 1 µM (MET): 80%
- remaining activity at 1 µM (LKB1): 100%
- remaining activity at 1 µM (PAK2): 94%
- remaining activity at 1 µM [3]: 57%
- remaining activity at 1 µM (MAPKAPK2): 100%
- remaining activity at 1 µM (PKAC-beta): 95%
- remaining activity at 1 µM (S6K1): 99%
- remaining activity at 1 µM [4]: 100%
- remaining activity at 1 µM (NEK1): 100%
- remaining activity at 1 µM (PIK4CB): 100%
- remaining activity at 1 µM [5]: 51%
- remaining activity at 1 µM (DMPK2): 100%
- remaining activity at 1 µM (DRAK2): 100%
- remaining activity at 1 µM (CAMK2A): 88%
- remaining activity at 1 µM (ERK4): 91%
- remaining activity at 1 µM (BUB1): 100%
- remaining activity at 1 µM (FLT3 (D835V)): 95%
- remaining activity at 1 µM (MARK3): 100%
- remaining activity at 1 µM (ITK): 90%
- remaining activity at 1 µM (ICK): 100%
- remaining activity at 1 µM (SRC): 76%
